Measured values from patent publication US20190125826A1, “METHODS AND PHARMACEUTICAL COMPOSITION FOR THE TREATMENT OF INFLAMMATORY SKIN DISEASES ASSOCIATED WITH DESMOGLEIN-1 DEFICIENCY” (INSERM (INSTITUT NATIONAL DE LA SANTÉ ET DE LA MÉDICALE), priority 2016, published 2019).

Biological target: T1, IKK-2 (Homo sapiens, UniProt O14920)
T1 construct: endogenous in cells; host or cells: primary keratinocytes from a healthy control and from Patient#1
T1 sequence (O14920 1-756): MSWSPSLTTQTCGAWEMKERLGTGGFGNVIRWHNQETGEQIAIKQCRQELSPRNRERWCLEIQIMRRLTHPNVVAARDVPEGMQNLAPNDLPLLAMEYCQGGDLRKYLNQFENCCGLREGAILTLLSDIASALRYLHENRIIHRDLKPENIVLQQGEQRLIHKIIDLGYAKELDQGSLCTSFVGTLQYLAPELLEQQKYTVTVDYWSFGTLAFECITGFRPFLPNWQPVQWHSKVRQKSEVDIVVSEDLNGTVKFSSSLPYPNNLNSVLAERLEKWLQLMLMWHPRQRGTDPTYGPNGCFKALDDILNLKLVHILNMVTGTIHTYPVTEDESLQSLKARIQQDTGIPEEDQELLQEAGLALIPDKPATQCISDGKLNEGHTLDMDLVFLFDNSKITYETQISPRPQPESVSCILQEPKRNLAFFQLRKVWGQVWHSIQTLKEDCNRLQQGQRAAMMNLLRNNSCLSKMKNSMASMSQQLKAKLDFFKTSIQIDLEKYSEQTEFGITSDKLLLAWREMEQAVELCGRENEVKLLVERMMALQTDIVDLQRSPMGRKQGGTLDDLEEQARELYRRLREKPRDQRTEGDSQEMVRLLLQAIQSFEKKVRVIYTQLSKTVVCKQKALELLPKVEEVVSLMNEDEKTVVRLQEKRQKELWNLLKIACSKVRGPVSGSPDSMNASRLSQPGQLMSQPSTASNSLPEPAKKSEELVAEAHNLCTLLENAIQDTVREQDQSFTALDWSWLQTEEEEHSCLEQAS
Test: Inhibition of IKK-2 by ML120B in keratinocytes (IL8 mRNA by RT-qPCR)
Format: cell-based
Details: Patient#1 keratinocytes; ML120B 20 μM preincubated 1 h, then 10 ng/ml IL-1β, 24 h
Procedure: Total RNAs were isolated from cultured keratinocytes, HEK293T cells and frozen skin biopsies from the two patients and controls using the RNeasy Plus Minikit (Qiagen GmbH, Hilden, Germany), according to the manufacturer's instructions. RNA samples were reverse-transcribed into cDNA using the High Capacity cDNA Reverse Transcriptase Kit (Applied Biosystems, Foster City, Calif., USA). Real-time PCR was carried out using the Fast SYBR Green PCR Master Mix (PE Applied Biosystems) on an ABI prism 7000 (PE Applied Biosystems). RT-qPCR primers were designed using the sequences available in Ensembl and spanned an intron-exon boundary. The amounts of the various mRNAs were normalized against the amount of beta actin RNA measured by RT-qPCR in each sample. The results were analyzed with DataAssist® (version 3.01, Applied Biosystems), which uses the comparative Ct (ddCt) method.
Keratinocytes from a healthy control and from Patient#1 were seeded into 12-well plates (100 000 cells/well). 24 hours later, keratinocytes were preincubated with ML120B 20 μM at 37° C. for 1 h and then stimulated with 10 ng/ml IL-1β. 24 hours after the stimulation, the cells were pelleted for RNA extraction. ML120B was sent as a gift by Emmanuel Laplantine (Institut Pasteur, Paris, France).

production of IL8: restored the normal production of IL8
Compound: COc1c(Cl)cc2c([nH]c3cnccc32)c1NC(=O)c1cccnc1C [ML120B]
